# Results from US20180042899A1, “Method of Treating Transplant Rejection and Autoimmune Diseases” (priority 2012, published 2018).
# Where two headings read alike, the source gives them in different places.
# Assays:
# EAE = details: mouse, in vivo; cited from earlier work
# AHR (AHR^b isoform) = target: T1, AHR (AHR^b isoform) (Mus musculus, UniProt P30561, M589L/N533S/P471L); test: Photoaffinity competitive ligand binding with radioligand 125Ibr2N3DpD in hepatic cytosol; set-up: species or system mouse (C57BL/6J)
# T1 construct: from tissue; host or cells: liver of C57BL/6J mice (cytosol in A1; liver in vivo in A7)
# T1 sequence (P11499 whole entry partner, one chain of several, canonical isoform): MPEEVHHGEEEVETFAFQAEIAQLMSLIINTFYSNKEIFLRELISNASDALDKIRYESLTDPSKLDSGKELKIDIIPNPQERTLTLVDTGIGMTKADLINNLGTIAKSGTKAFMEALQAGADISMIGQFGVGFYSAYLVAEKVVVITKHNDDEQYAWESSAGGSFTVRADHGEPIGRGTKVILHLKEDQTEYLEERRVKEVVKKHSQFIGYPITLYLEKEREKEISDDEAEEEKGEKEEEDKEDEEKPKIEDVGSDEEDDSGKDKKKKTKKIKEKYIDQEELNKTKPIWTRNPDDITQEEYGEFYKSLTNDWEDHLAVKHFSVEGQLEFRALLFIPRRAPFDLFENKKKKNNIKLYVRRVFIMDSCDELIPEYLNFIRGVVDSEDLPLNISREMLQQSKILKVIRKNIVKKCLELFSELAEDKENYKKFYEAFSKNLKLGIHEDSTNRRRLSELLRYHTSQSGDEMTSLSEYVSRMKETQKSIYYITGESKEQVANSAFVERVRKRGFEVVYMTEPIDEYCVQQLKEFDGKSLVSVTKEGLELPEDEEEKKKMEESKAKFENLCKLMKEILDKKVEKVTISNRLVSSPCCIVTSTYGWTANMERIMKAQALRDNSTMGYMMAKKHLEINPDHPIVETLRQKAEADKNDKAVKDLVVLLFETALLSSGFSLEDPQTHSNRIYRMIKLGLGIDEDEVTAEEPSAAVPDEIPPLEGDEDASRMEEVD
# AHR^d [1] = target: T2, AHR^d (Mus musculus, UniProt P30561, A375V); test: CYP1A1 mRNA (qPCR) in splenocytes of AHR^d congenic mice
# T2 sequence (P11499 whole entry partner, one chain of several): as the sequence (P11499 whole entry partner, one chain of several, canonical isoform) above
# [2] = target: T3, AHR A375V (valine point mutation, AHR^d type) (Mus musculus, UniProt P30561, A375V); test: DRE-luciferase in COS-1 cells transfected with mAHR-A375V; details: read-out: EC50, DRE-luciferase; A375V transfected COS-1 cells, 4 hours
# T3 sequence (P30561 10-848 A375V): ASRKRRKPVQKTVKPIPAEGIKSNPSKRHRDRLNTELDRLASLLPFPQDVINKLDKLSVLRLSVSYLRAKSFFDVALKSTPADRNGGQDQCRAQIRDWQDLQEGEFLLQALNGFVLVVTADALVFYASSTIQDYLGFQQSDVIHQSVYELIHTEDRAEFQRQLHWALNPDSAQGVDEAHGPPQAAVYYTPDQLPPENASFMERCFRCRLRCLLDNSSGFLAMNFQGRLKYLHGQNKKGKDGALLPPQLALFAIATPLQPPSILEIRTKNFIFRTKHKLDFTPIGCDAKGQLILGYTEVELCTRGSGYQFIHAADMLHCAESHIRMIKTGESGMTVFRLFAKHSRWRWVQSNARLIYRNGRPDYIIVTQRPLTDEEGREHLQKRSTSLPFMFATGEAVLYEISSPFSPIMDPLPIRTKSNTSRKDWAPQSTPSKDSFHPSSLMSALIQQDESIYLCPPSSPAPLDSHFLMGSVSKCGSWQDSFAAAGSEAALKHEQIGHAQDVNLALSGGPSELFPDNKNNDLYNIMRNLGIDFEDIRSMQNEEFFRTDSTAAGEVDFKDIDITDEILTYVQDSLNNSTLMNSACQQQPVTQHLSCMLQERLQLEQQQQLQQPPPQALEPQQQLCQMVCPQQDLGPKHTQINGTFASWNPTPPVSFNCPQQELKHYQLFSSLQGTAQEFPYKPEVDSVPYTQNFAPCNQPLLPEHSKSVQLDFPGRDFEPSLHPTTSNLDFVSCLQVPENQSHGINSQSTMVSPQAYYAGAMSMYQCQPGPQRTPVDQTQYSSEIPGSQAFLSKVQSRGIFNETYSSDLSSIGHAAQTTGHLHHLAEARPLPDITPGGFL
# wild-type AHR (AHR^b) = target: T4, wild-type AHR (AHR^b) (Mus musculus, UniProt P30561, M589L/N533S/P471L); test: DRE-luciferase in COS-1 cells transfected with wild-type mAHR
# T4 sequence (P30561 10-805 P471L/N533S/M589L): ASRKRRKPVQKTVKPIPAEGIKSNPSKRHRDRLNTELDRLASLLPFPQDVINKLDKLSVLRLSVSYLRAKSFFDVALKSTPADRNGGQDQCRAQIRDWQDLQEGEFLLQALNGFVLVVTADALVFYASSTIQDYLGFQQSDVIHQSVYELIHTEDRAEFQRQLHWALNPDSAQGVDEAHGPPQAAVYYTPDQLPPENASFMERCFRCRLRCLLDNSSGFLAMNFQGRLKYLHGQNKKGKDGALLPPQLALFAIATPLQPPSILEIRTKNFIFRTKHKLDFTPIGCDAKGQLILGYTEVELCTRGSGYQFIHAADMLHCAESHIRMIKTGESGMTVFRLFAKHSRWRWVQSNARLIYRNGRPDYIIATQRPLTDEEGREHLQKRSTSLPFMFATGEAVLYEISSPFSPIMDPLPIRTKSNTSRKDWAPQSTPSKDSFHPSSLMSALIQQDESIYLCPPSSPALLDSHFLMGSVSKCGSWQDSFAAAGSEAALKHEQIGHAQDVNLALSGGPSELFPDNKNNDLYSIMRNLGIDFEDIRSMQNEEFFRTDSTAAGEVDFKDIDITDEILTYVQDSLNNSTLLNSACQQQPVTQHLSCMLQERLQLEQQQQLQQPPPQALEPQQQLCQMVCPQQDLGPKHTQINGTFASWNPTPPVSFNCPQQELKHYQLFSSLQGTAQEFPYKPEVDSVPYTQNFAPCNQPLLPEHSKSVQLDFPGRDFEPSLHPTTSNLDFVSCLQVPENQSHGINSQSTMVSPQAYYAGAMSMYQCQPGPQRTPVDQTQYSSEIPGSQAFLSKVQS
# AHR^b = AHR^b (Mus musculus, UniProt P30561, M589L/N533S/P471L); test: CYP1A1 mRNA (qPCR) in splenocytes of wild-type C57BL/6J mice
# AHR^b, sequence (P11499 whole entry partner, one chain of several): as the sequence (P11499 whole entry partner, one chain of several, canonical isoform) above
# [3] = target: murine AHR^d low affinity receptor (Mus musculus, UniProt P30561, A375V); test: EROD activity in AHR^d-15 cells (rat hepatoma BP8 expressing murine AHR^d)
# murine AHR^d low affinity receptor, sequence (P34058 whole entry partner, one chain of several): as the sequence (P11499 whole entry partner, one chain of several, canonical isoform) above
# pDC/T cell coculture = test: pDC/T cell co-culture, IDO and FoxP3 mRNA; format: cell-based, mouse; details: 5 days; SU5416 500 nM, TCDD 10 nM
# AHR^d [4] = target: T2, AHR^d; set-up: endogenous in cells; host or cells: primary splenocytes of AHR^d congenic mice; details: cited from earlier work
# AHR [5] = test: Antagonism by CH223191 of DRE-driven luciferase activation
# AHR^fxneo/fxneo mice [6] = details: mouse, in vivo; cited from earlier work
# AHR [7] = test system: AHR
# AHR^d [8] = target: T2, AHR^d; test: Hepatic microsomal EROD activity after oral dosing, DBA/2J mice; format: in vivo, mouse (DBA/2J); set-up: from tissue; host or cells: liver of DBA/2J mice dosed orally; details: oral SU5416 30, 80, 120 mg/kg; BNF 120 mg/kg, after 48 hours
# [9] = target: T5, high affinity AHR isoform (Rattus norvegicus, UniProt P41738)
# T5 sequence (P41738 10-853): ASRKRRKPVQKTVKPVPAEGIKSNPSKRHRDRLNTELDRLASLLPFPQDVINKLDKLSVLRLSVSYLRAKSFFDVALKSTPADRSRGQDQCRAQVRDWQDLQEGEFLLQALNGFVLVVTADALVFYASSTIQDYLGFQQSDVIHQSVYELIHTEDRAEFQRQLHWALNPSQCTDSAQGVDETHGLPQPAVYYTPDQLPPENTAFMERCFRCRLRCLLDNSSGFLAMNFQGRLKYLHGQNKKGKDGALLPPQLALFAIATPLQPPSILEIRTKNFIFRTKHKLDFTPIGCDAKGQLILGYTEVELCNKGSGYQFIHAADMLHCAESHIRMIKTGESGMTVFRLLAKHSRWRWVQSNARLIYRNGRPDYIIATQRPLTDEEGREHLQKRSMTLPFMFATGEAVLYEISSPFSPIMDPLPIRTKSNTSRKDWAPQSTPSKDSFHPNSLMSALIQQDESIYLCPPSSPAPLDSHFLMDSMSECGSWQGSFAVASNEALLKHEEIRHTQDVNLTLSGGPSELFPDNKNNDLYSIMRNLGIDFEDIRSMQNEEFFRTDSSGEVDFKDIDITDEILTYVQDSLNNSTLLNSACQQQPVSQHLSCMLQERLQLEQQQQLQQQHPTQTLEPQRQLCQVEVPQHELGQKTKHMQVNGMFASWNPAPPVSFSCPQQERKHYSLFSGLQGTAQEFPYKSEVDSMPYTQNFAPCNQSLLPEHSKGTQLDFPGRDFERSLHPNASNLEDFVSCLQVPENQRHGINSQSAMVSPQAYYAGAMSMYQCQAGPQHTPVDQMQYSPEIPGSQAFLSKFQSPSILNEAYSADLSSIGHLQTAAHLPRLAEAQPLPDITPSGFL
# skin graft rejection = details: 2 doses of 50 mg/kg, 2 and 5 days after skin grafting
# IDO = IDO mRNA in cultured splenocytes; format: cell-based, mouse; details: titrating doses, 4 hours
# [10] = test system: LPS-induced airway inflammation; details: mouse, in vivo; cited from earlier work
# naive T cells [11] = test: Naive CD4+ T cells with TGF-β, flow cytometry for FoxP3 and CD39; details: TGF-β 2 ng/ml with SU5416 250 nM, day 3
# AHR^fxneo/fxneo mice [12] = test: In utero exposure, closure of ductus venosus (DV) in AHR hypomorph mice; details: single dose 110 mg/kg i.p. to dams at E18.5; AHR^fxneo/fxneo pups at 4 weeks
# [13] = in vivo; cited from earlier work
# naive T cells [14] = test: Naive T cells in Th17 conditions, IL-17 ELISA of supernatant; details: 3 days
# [15] = metastatic colorectal cancers; cited from earlier work
structure (smiles),measurement,setting,value
"O=Cc1c2[nH]c3ccccc3c2cc2[nH]c3ccccc3c12 [FICZ, formylindolo[3,2-b]carbazole]",effect on EAE,EAE,aggravates this syndrome
"c1ccc2cc3c(ccc4ccccc43)cc2c1 [1,2-Benzanthracene]",IC50,"AHR (AHR^b isoform); C57BL/6J hepatic cytosol, 1 nM radioligand, read-out: IC50, competitive binding",13.7 nM
"Clc1cc2c(cc1Cl)Oc1cc(Cl)c(Cl)cc1O2 [TCDD, 2,3,7,8-tetrachlorodibenzo-p-dioxin]",EC50,AHR^d [1],1.89 nM
same,"total fold change of CYP1A1, AHR^b versus AHR^d","AHR^d [1]; splenocytes, qPCR, 4 hours",more CYP1A1 in AHR^b compared to AHR^d mice
same,EC50,[2],2.47 nM
same,EC50,wild-type AHR (AHR^b),0.73 nM
same,EC50,AHR^b,0.461 nM
same,shift of EROD dose curve between AHR^b (5L) and AHR^d-15,[3]; to the left for the AHR^b isoform,1.5 orders of magnitude
same,FoxP3 mRNA in pDC/T cell coculture,pDC/T cell coculture,up regulation was also seen
same,IDO mRNA in pDC/T cell coculture,pDC/T cell coculture,up regulation was also seen
same,binding affinity of AHR^d relative to AHR^b,AHR^d [4],one-fifteenth to one-twentieth
same,inhibition of DRE activation by titrated CH223191,"AHR [5]; 1 nM TCDD or 100 nM SU5416, 4 hours",inhibited
same,IC50,AHR (AHR^b isoform),1.5 nM
same,effect on EAE,EAE,ameliorate the symptoms
same,closure of DV by in utero activation in hypomorphs,AHR^fxneo/fxneo mice [6],successfully closed the DV
same,duration of luciferase (DRE) activity,AHR [7],long duration DRE-binding
"O=c1cc(-c2ccccc2)oc2ccc3ccccc3c12 [BNF, β-naphthoflavone]",hepatic EROD activity,AHR^d [8],dramatically decreased in vivo activity
same,EROD response in 5L cell line,[9],strong response
same,EROD response in AHR^d-15 cells,[3]; doses as high as 10 uM,no response
same,IC50,AHR (AHR^b isoform),2.8 nM
"Cc1cc(C)c(/C=C2\C(=O)Nc3ccccc32)[nH]1 [SU5416, 3-[(2,4-dimethylpyrrol-5-yl)methylidenyl]-indolin-2-one]",skin graft survival,skin graft rejection,prolonged graft survival compared to the control group
same,FoxP3 mRNA in pDC/T cell coculture,pDC/T cell coculture,generated
same,IDO mRNA in pDC/T cell coculture,pDC/T cell coculture,generated
same,IDO mRNA induction,IDO,induced significant amounts of IDO mRNA
same,effect on LPS-induced airway inflammation,[10],blocked LPS-induced airway inflammation
same,CD39 expression,naive T cells [11],up regulated CD39 in the FoxP3^+ T cells
same,FoxP3 protein expression by flow cytometry,naive T cells [11],significantly enhanced the FoxP3 protein expression
same,inhibition of DRE activation by titrated CH223191,AHR [5],minimal inhibition
same,effect on EAE,EAE,abrogate EAE
same,pups with closed DV,AHR^fxneo/fxneo mice [12],13 of 22
same,plasma half-life,[13],30 min
same,IL-17 protein in supernatant,naive T cells [14]; higher doses,did not see this effect
same,IL-17 protein in supernatant,naive T cells [14]; low doses,small increase in IL-17 protein
same,tolerability in clinical trials,[15],well tolerated
